Laboratory results as given in patent publication US20110034384A1, “COMBINATION VEGFR2 THERAPY WITH mTOR INHIBITORS” (Bristol-Myers Squibb Company, priority 2007, published 2011).
Entries after “also recorded” stand apart in the source; their conditions may differ.

Assays:
Type in all cases: in vivo, nude mice
Colo205 tumor [1] = assay: Colo205 xenograft: Comp-I vs. Bevacizumab, Temsirolimus added at Day 17 (Example 2); settings: for Day 22 (TV, mm3) (Mean) / Day 22 (TV, mm3) Average ± STDErr: Temsirolimus 10 mg/kg BIW added on Day 17 to Bevacizumab 10 mg/kg BIW, Comp-I 80 mg/kg TIW or vehicle (n = 4); for Day 1 (TV, mm3) (Mean) / Day 1 (TV, mm3) Average ± STDErr: i.p.; for Day 1 (TV, mm3) (Mean) / Day 1 (TV, mm3) Average ± STDErr / Day 19 (TV, mm3) (Mean) / Day 19 (TV, mm3) Average ± STDErr / Percentage of tumor growth inhibition: Bevacizumab 10 mg/kg BIW, Comp-I 80 mg/kg TIW; for Day 19 (TV, mm3) (Mean) / Day 19 (TV, mm3) Average ± STDErr: Temsirolimus 10 mg/kg BIW added on Day 17; for Day 19 (TV, mm3) (Mean) / Day 19 (TV, mm3) Average ± STDErr / Percentage of tumor growth inhibition: Day 19; for Percentage of tumor growth inhibition: Temsirolimus added on Day 17
Procedure: (§1) Tumors were measured with calipers twice a week. Tumor volumes (mm^3) were calculated by the formula [π/6 (L×W^2)], where L represents the largest tumor diameter (mm) and W represents the smallest tumor diameter (mm). Tumor measurements were noted as absolute values. Animal body weights were determined weekly during the course of the experiment. Tumor Growth Inhibition (TGI) was calculated as the percent tumor growth of treated (T) groups from control group (vehicle, C). Tumor growth was calculated by subtracting initial tumor volume (at day 0) from the final tumor volume at the end of the experiment. TGI=(1−[T-T0]/[C-C0])*100.
Human Colo205 cells were injected subcutaneously into the flanks of nude mice. Mice were randomized and treatments initiated when tumors reached an average size of 167 mm^3. Comp-I and Bevacizumab were administered intraperitoneally to Colo-205 tumor bearing-mice in doses and schedules as indicated in Table 4. Temsirolimus treatment (10 mg/kg, BIW) was initiated on Day 17 added to Comp-I and Bevacizumab treatments on Day 17. Half the mice (n=4) in the vehicle group were initiated on torisel the same day and the other half (n=4) remained under vehicle treatment. Both anti-angiogenic treatments reduced […] to similar levels by Day 22 (FIG. 4). Percentage of tumor growth inhibition was determined as follows: Day 19/Comp-I (89%), Day 19/Bevacizumab (87%).

Colo205 tumor [2] = assay: Colo205 xenograft: Comp-I vs. Bevacizumab, Temsirolimus added at Day 9 (Example 3); settings: for Day 14 (TV, mm^3) (Mean) / Day 14 (TV, mm^3) Average ± STDErr: Temsirolimus 10 mg/kg BIW added on Day 9 to Bevacizumab 10 mg/kg BIW, Comp-I 80 mg/kg TIW or vehicle (n = 4); for Day 1 (TV, mm^3) (Mean) / Day 1 (TV, mm^3) Average ± STDErr: i.p.; for Day 1 (TV, mm^3) (Mean) / Day 1 (TV, mm^3) Average ± STDErr / Day 8 (TV, mm^3) (Mean) / Day 8 (TV, mm^3) Average ± STDErr / Percentage of tumor growth inhibition: Bevacizumab 10 mg/kg BIW, Comp-I 80 mg/kg TIW; for Day 8 (TV, mm^3) (Mean) / Day 8 (TV, mm^3) Average ± STDErr: Day 8 (before Temsirolimus)
Procedure: as §1
Human Colo205 cells were injected subcutaneously into the flanks of nude mice. Mice were randomized and treatments initiated when tumors reached an average size of 411 mm^3. Comp-I and Bevacizumab were administered intraperitoneally to Colo-205 tumor bearing-mice in doses and schedules as indicated in Table 5. Temsirolimus (10 mg/kg, BIW) was added to Comp-I and Bevacizumab treatments on Day 9. Half the mice (n=4) in the vehicle group were initiated on torisel the same day and the other half (n=4) remained under vehicle treatment Both anti-angiogenic treatments reduced […] to similar levels by Day 14 (FIG. 5).

Colo205 tumor [3] = assay: Colo205 xenograft: Comp-I, Temsirolimus and their combination (Example 1); settings: for Colo205 tumor growth inhibition (in words): 21 days under treatment, FIG. 1, Table 2; for Tumor Volume Average: i.p., Comp-I 60 mg/kg TIW, Temsirolimus 20 mg/kg BIW, Combo 60/20 mg/kg TIW/BIW
Procedure: Human Colo205 cells were injected subcutaneously into the flanks of nude mice. Mice were randomized and treatments initiated when tumors reached an average size of 235 mm^3. Optimal doses of Comp-I (the VEGFR2 specific inhibitor represented by SEQ ID NO: 4) and Temsilorimus were administered intraperitoneally to Colo-205 tumor bearing-mice in doses and schedules as indicated in Table 1. Tumor growth was evaluated for 21 days under treatment (FIG. 1). Mice were taken off treatment after day 21 until day 57, with a continuous assessment of tumor growth (FIG. 2). Control was euthanized on Day 41. [table] Tumors were measured with calipers twice a week. Tumor volumes (mm^3) were calculated by the formula [π/6 (L×W^2)], where L represents the largest tumor diameter (mm) and W represents the smallest tumor diameter (mm). Tumor measurements were noted as absolute values. Animal body weights were determined weekly during the course of the experiment. Tumor Growth Inhibition (TGI) was calculated as the percent tumor growth of treated (T) groups from control group (vehicle, C). Tumor growth was calculated by subtracting initial tumor volume (at day 0) from the final tumor volume at the end of the experiment. TGI=(1−[T-T0]/[C-C0])*100.

HT1080 tumor = assay: HT1080 xenograft: Comp-I vs. Bevacizumab, Temsirolimus added at Day 23 (Example 4); settings: for Day 1 (TV, mm^3) (Mean) / Day 1 (TV, mm^3) Average ± STDErr / Day 23 (TV, mm^3) (Mean) / Day 23 (TV, mm^3) Average ± STDErr: i.p.
Procedure: Human HT1080 cells were injected subcutaneously into the flanks of nude mice. Mice were randomized and treatments initiated when tumors reached an average size of 201 mm^3. Comp-I and Bevacizumab were administered intraperitoneally to HT1080 tumor bearing-mice in doses and schedules as indicated in Table 6. Temsirolimus (10 mg/kg, BIW) was added to Comp-I and Bevacizumab treatments on Day 23. Both anti-angiogenic treatments reduced […] as measured on Day 27 (FIG. 6).

[4] = Bevacizumab 5 mg/kg BIW, Comp-I 100 mg/kg TIW
[5] = QW groups: Bevacizumab 5 mg/kg QW, Comp-I 100 mg/kg QW
[6] = Day 11, Temsirolimus 10 mg/kg BIW added on Day 9

Row | Molecule | Day 22 (TV, mm3) (Mean) (Colo205 tumor [1]) [mm3] | Day 22 (TV, mm3) Average ± STDErr (Colo205 tumor [1]) [mm3] | Day 14 (TV, mm^3) (Mean) (Colo205 tumor [2]) [mm^3] | Day 14 (TV, mm^3) Average ± STDErr (Colo205 tumor [2]) [mm^3] | Colo205 tumor growth inhibition (in words) (Colo205 tumor [3]) | Tumor Volume Average (Colo205 tumor [3]; Day 1) [mm^3] | Tumor Volume Average (Colo205 tumor [3]; Day 5) [mm^3] | Tumor Volume Average (Colo205 tumor [3]; Day 8) [mm^3] | Tumor Volume Average (Colo205 tumor [3]; Day 11) [mm^3] | Tumor Volume Average (Colo205 tumor [3]; Day 14) [mm^3] | Tumor Volume Average (Colo205 tumor [3]; Day 19) [mm^3] | Tumor Volume Average (Colo205 tumor [3]; Day 21) [mm^3] | Day 1 (TV, mm^3) (Mean) (HT1080 tumor; [4]) [mm^3] | Day 1 (TV, mm^3) Average ± STDErr (HT1080 tumor; [4]) [mm^3] | Day 1 (TV, mm^3) (Mean) (HT1080 tumor; [5]) [mm^3] | Day 1 (TV, mm^3) Average ± STDErr (HT1080 tumor; [5]) [mm^3] | Day 23 (TV, mm^3) (Mean) (HT1080 tumor; [4]) [mm^3] | Day 23 (TV, mm^3) Average ± STDErr (HT1080 tumor; [4]) [mm^3] | Day 23 (TV, mm^3) (Mean) (HT1080 tumor; [5]) [mm^3] | Day 23 (TV, mm^3) Average ± STDErr (HT1080 tumor; [5]) [mm^3] | other results
1 | CO[C@H]1C[C@@H]2CC[C@@H](C)[C@@](O)(O2)C(=O)C(=O)N2CCCC[C@H]2C(=O)O[C@H]([C@H](C)C[C@@H]2CC[C@@H](OC(=O)C(C)(CO)CO)[C@H](OC)C2)CC(=O)[C@H](C)/C=C(\C)[C@@H](O)[C@@H](OC)C(=O)[C@H](C)C[C@H](C)/C=C/C=C/C=C/1C [Temsirolimus, temsirolimus] | 667.5 | 612.3 ± 99.5 | 821.1 | 849.6 ± 106.6 | equally inhibited | 237.19 | 287.19 | 313.73 | 354.14 | 378.44 | 395.95 | 422.42 | – | – | – | – | – | – | – | – | –
2 | Bevacizumab: anti-angiogenic treatment; Bevacizumab-mediated VEGF inhibition | 250.7 | 246.5 ± 21.2 | 458.9 | 455.1 ± 36.2 | – | – | – | – | – | – | – | – | 191.9 | 201.6 ± 19.1 | 195.8 | 202.0 ± 18.8 | 517.4 | 486.9 ± 34.6 | 598.3 | 619.3 ± 69.6 | Day 1 (TV, mm3) (Mean) (Colo205 tumor [1]): (166.7) mm3; Day 1 (TV, mm3) Average ± STDErr (Colo205 tumor [1]): 167.7 ± 7.7 mm3; Day 19 (TV, mm3) (Mean) (Colo205 tumor [1]): (299.2) mm3; Day 19 (TV, mm3) Average ± STDErr (Colo205 tumor [1]): 290.3 ± 24.6 mm3; Percentage of tumor growth inhibition (Colo205 tumor [1]): 87%; Day 1 (TV, mm^3) (Mean) (Colo205 tumor [2]): (398.6) mm^3; Day 1 (TV, mm^3) Average ± STDErr (Colo205 tumor [2]): 413.0 ± 32.9 mm^3; Day 8 (TV, mm^3) (Mean) (Colo205 tumor [2]): (511.8) mm^3; Day 8 (TV, mm^3) Average ± STDErr (Colo205 tumor [2]): 519.0 ± 50.0 mm^3; Percentage of tumor growth inhibition (Colo205 tumor [2]; Day 8): 38.99%; Percentage of tumor growth inhibition (Colo205 tumor [2]; [6]): 82.2%
3 | Comp-I: the VEGFR2 specific inhibitor represented by SEQ ID NO: 4; a VEGFR-2 binding 10Fn3 fibronectin based scaffold polypeptide (protein) GEVVAATPTSLLISWRHPHFPTRYYRITYGETGGNSPVQEFTVPLQPPTATISGLKPGVDYTITVYAVTDGRNGRLLSIPISINYRTEIDKPCQ | 247.1 | 239.4 ± 18.3 | 449.2 | 444.6 ± 30.2 | inhibits Colo205 tumor growth to the same extent as the mTOR inhibitor Temsirolimus; also recorded: equally inhibited | 235.25 | 301.95 | 325.42 | 369.21 | 403.32 | 426.71 | 455.84 | 183.4 | 205.1 ± 20.9 | 207.0 | 203.4 ± 18.7 | 460.5 | 432.8 ± 23.6 | 492.9 | 533.4 ± 47.9 | sensitivity of tumor growth, Comp-I vs. Bevacizumab (in words) (HT1080 tumor; HT1080 model): tumor growth is more sensitive to Comp-1-mediated VEGFR-2 inhibition than to Bevacizumab-mediated VEGF inhibition; Day 1 (TV, mm3) (Mean) (Colo205 tumor [1]): (166.2) mm3; Day 1 (TV, mm3) Average ± STDErr (Colo205 tumor [1]): 167.4 ± 8.1 mm3; Day 19 (TV, mm3) (Mean) (Colo205 tumor [1]): (293.1) mm3; Day 19 (TV, mm3) Average ± STDErr (Colo205 tumor [1]): 289.4 ± 21.5 mm3; Percentage of tumor growth inhibition (Colo205 tumor [1]): 89%; Day 1 (TV, mm^3) (Mean) (Colo205 tumor [2]): (417.2) mm^3; Day 1 (TV, mm^3) Average ± STDErr (Colo205 tumor [2]): 413.5 ± 28.7 mm^3; Day 8 (TV, mm^3) (Mean) (Colo205 tumor [2]): (505.8) mm^3; Day 8 (TV, mm^3) Average ± STDErr (Colo205 tumor [2]): 502.5 ± 33.6 mm^3; Percentage of tumor growth inhibition (Colo205 tumor [2]; Day 8): 53.03%; Percentage of tumor growth inhibition (Colo205 tumor [2]; [6]): 91.5%
